Assay results as given in PMC9953967, “Discovery of Novel Bioactive Tanshinones and Carnosol Analogues against Breast Cancer” (Cancers, 2023).
Like-named read-outs stand apart in the source and are kept apart here.

Columns and labels:
[1] = system: MDA-MB231; experiment: CellTiterGlo luminescent cell viability assay, MDA-MB231
Procedure: (§1) A cell proliferation assay was performed using the CellTiterGlo (CTG, Promega Corp., Madison, WI, USA) luminescent cell viability assay kit. MDA-MB231 cells were seeded into 96-well plates at concentrations experimentally determined to ensure logarithmic growth during the duration of the experiment and to prevent adverse effects on cell growth by DMSO exposure. The plates were incubated 12 h before treatment. […] The final concentration of DMSO was 0.3% (v/v) in each well. The positive control used was staurosporine (1 μM) and a toxic quinolone generated inhouse, as kill-all controls, and the negative control used was cholesterol. […] The plates were incubated for 72 h and then quenched with CTG at 50 μL per well at RT. Plates were then incubated at RT for 20 min and centrifuged at 1000 rpm for 1 min. Luminescence was read on a CLARIOstar Plus plate reader (BMG LabTech, Ortenberg, Germany). The cell viability assay was also performed in the non-neoplastic cell line BJ, which was incubated with compounds, as mentioned in cell viability assay (CTG). The mean luminescence of each experimental treatment group was normalized as a percentage of the mean intensity of untreated controls. EC50 values were calculated from dose-response curve-fitting via non-linear regression using GraphPad Prism 9.0 (GraphPad Software, San Diego, CA, USA) (Figure S1).

[2] = system: SUM149; experiment: CellTiterGlo luminescent cell viability assay, SUM149
Procedure: as §1

[3] = in vitro; settings: human, Cytotoxicity IC50 BJ
Procedure: as §1

[4] = system: T47D; experiment: CellTiterGlo luminescent cell viability assay, T47D; settings: Homo sapiens, 72 h
Procedure: as §1

[5] = system: non-tumorigenic cell line BJ; settings: human, 72 h
Procedure: as §1

[6] = system: T47D; settings: human, 72 h
Procedure: as §1

[7] = system: MCF07; experiment: CellTiterGlo luminescent cell viability assay, MCF07
Procedure: as §1

[8] = system: several cell models of breast cancer; set-up: method as in PMID 26241873; settings: read-out: EC50 antiproliferative activity; cited from earlier work
[9] = system: MDA-MB231; experiment: Propidium iodide (PI) assay with Hoechst counterstain; format: cell-based, human; settings: MDA-MB231, 48 h, 25 μM
Procedure: Propidium iodide (PI) assay was performed to complement the viability assay. The assay was conducted with MDA-MB231 cancer cell models seeded in 48-well plates (Clear, Corning#3548) and cultured for 12 h, then treated for 48 h. Cells were fixed with cold methanol, and stained (0.4% PI, Sigma-Aldrich, Co., St. Louis, MO, USA). Fluorescence was measured and analyzed using Cytation 1 Image Reader (BioTek, Winooski, VT, USA). Cell viability was calculated/plotted as the percentage of surviving cells after treatment relative to the vehicle. For qualitative analysis and visualization, doubling staining was performed using Hoechst dye to stain nuclei.

[10] = system: non-tumorigenic cell line BJ; experiment: CellTiterGlo cell viability assay, non-neoplastic cell line BJ; settings: read-out: Cytotoxicity IC50 BJ, 72 h incubation, CellTiter-Glo, mean ± SD
Procedure: as §1

[11] = as above; settings: human, BJ cells (non-neoplastic, non-tumorigenic cell line), Cytotoxicity IC50 BJ, 72 h incubation, CellTiter-Glo, mean ± SD
Procedure: as §1

[12] = system: MDA-MB231; set-up: method as in PMID 26241873; settings: cited from earlier work
[13] = system: HBL-100 and T-47D; set-up: method as in PMID 30840453; settings: two breast cancer cell lines HBL-100 and T-47D, SRB assay; cited from earlier work
[14] = system: MDA-MB231; set-up: method as in PMID 30793595; settings: read-out: Antiproliferative activity, sulforhodamine B assay, MDA-MB231; cited from earlier work
[15] = system: MCF-7; set-up: method as in PMID 30793595; settings: read-out: Antiproliferative activity, sulforhodamine B assay, MCF-7; cited from earlier work
[16] = system: MCF07
Procedure: as §1

[17] = Ferric Reducing Antioxidant Power (FRAP) assay; settings: compounds at 100 μM; positive control ascorbic acid 1 mM
Procedure: An antioxidant evaluation of the compounds was performed using the Ferric Reducing Antioxidant Power (FRAP) Assay Colorimetric Kit (ab234626, Abcam, Cambridge, UK) following the manufacturers’ instructions. Briefly, FRAP reagents were mixed with compounds at 100 μM in 96-well plates, and then reacted for 10 min at 37 °C in the dark. Ascorbic acid was provided as the positive control (1mM). After incubation, the absorbance was read using a microplate reader (CLARIOstar Plus, BMG LabTech, Ortenberg, Germany) at 594 nm. FRAP [19] was quantified using a reagent calibration curve (Y = 0.039X + 0.002, R^2 = 0.9978) and calculated as nmol Ferrous equivalents.

[18] = system: SUM149
Procedure: as §1

[19] = Homo sapiens, MDA-MB-231, 72 h, read-out: Cytotoxicity IC50 MDA-MB231, 72 h incubation, CellTiter-Glo, mean ± SD
[20] = Homo sapiens, SUM149, 72 h, read-out: Cytotoxicity IC50 SUM149
[21] = read-out: Cytotoxicity IC50 T47D, 72 h incubation, CellTiter-Glo, mean ± SD
[22] = Homo sapiens, 72 h, read-out: Cytotoxicity IC50 MCF07, 72 h incubation, CellTiter-Glo, mean ± SD
[23] = read-out: Cytotoxicity IC50 MDA-MB231, 72 h incubation, CellTiter-Glo, mean ± SD

| Compound | IC50 [1, 19] | IC50 [2, 20] | IC50 at 72 h [3] | IC50 [4, 21] | IC50 [7, 22] | EC50 [8] | IC50 [10] | IC50 at 72 h [11] | also measured |
| --- | --- | --- | --- | --- | --- | --- | --- | --- | --- |
| CC(C)c1cc2c(c(O)c1O)[C@@]1(C)CCC[C@@](C)(CN3C(=O)c4ccccc4C3=O)[C@@H]1CC2 [Compound 10, 11,12-Dihydroxy-N,N-(phthaloyl)dehydroabietylamine] | 2.8 ± 0.2 µM | 1.8 ± 0.2 µM | 32.5 ± 5 µM | 8.17 ± 0.44 µM | 4.6 ± 0.6 µM |  |  |  | IC50 [5]: 32.5 ± 5 µM; IC50 [6]: 8.2 ± 0.4 µM |
| CC(C)c1ccc2c(c1)CC[C@H]1[C@](C)(CN)CCC[C@]21C [dehydroabietylamine] |  |  |  |  |  | < 50 µM |  |  |  |
| CC(C)C1=CC2=C(C(=O)C1=O)[C@@]1(C)CCC[C@@](C)(CN3C(=O)c4ccccc4C3=O)[C@@H]1CC2 [Compound 8, 11,12-Dioxo-N,N-(phthaloyl)dehydroabietylamine] | 2.8 ± 0.4 µM | 1.5 ± 0.4 µM |  | 18.7 ± 0.3 µM | 2.3 ± 1.1 µM |  | 35.4 ± 5 µM | 35.4 ± 5 µM | Dose-dependent cell death (PI staining) [9]: clearly indicates this dependency |
| CC(C)c1cc2c(cc1O)[C@@]1(C)CCC[C@@](C)(CN3C(=O)c4ccccc4C3=O)[C@@H]1CC2 [Compound 6, 18-(phthalimid-2-yl)ferruginol] | 8.22 ± 0.47 µM |  |  |  |  |  | 74.8 ± 5.3 µM | 74.8 ± 5.3 µM | IC50 [1, 23]: 8.2 ± 0.5 µM; IC50 ([2]; Homo sapiens, SUM149, 72 h, read-out: Cytotoxicity IC50 SUM149, 72 h incubation, CellTiter-Glo, mean ± SD): 4.45 ± 0.2 µM; IC50 ([2]; read-out: Cytotoxicity IC50 SUM149, 72 h incubation, CellTiter-Glo, mean ± SD): 4.4 ± 0.2 µM; IC50 ([4]; read-out: Cytotoxicity IC50 T47D): 29.2 ± 1.5 µM; IC50 ([7]; Homo sapiens, 72 h, read-out: Cytotoxicity IC50 MCF07): 13 ± 0.6 µM |
| CC(C)c1cc2c(cc1O)[C@@]1(C)CCCC(C)(C)[C@@H]1CC2 [Compound 1, ferruginol] | 8.3 ± 1.4 µM | > 50 µM |  | > 100 µM | 19 ± 1.5 µM | < 50 µM |  | > 50 µM | Inhibition of cell cycle progression at the G2/M phase [12]: 19%; Cell cycle arrest at G0/G1 ([12]; positive control 43%, negative control 48.36%): 50.76% |
| CC(C)c1cc2c(cc1O)[C@@]1(C)CCC[C@@](C)(CN)[C@@H]1CC2 [Compound 2, 12-hydroxydehydroabietylamine] | 5.1 ± 0.6 µM | 4.4 ± 0.3 µM | 75 ± 6.2 µM | > 50 µM | 10 ± 1.5 µM |  |  |  |  |
| COC(=O)[C@]1(C)CCC[C@]2(C)c3cc(O)c(C(C)C)cc3CC[C@@H]12 [Compound 5, Methyl 12-hydroxyabieta-8,11,13-trien-18-oate] |  |  |  |  |  |  |  |  | GI50 [13]: 9.7 to 19 µM; IC50 [14]: 18.6 µM; IC50 [15]: 5.9 µM |
| COC(=O)[C@]1(C)CCC[C@]2(C)c3c(cc(C(C)C)c(O)c3O)CC[C@@H]12 [Compound 9, Methyl 11,12-Dihydroxy-dehydroabietate] | 9.4 ± 0.4 µM | > 50 µM | 57.6 ± 3 µM | 14.4 ± 0.6 µM | > 50 µM |  |  |  | Cytotoxicity IC50 MCF07 [16]: removed the activity; Antioxidant potential (FRAP) [17]: significant antioxidant potential; IC50 [5]: 57.6 ± 3 µM; IC50 [14]: 2.7 µM; Cytotoxicity IC50 SUM149 [18]: removed the activity; IC50 [15]: 2.8 µM |
| COC(=O)[C@]1(C)CCC[C@]2(C)C3=C(C=C(C(C)C)C(=O)C3=O)CC[C@@H]12 [Compound 7, Methyl 11,12-Dioxo-abieta-8,13-dien-18-oate] | 3.95 ± 0.8 µM | 1.3 ± 0.6 µM |  | 14.1 ± 0.5 µM | 8.29 ± 0.93 µM |  | 56.5 ± 6.1 µM | 56.5 ± 6.1 µM | IC50 [1, 23]: 3.9 ± 0.8 µM; Antioxidant potential (FRAP) [17]: significant antioxidant potential; IC50 ([7]; read-out: Cytotoxicity IC50 MCF07, 72 h incubation, CellTiter-Glo, mean ± SD): 8.3 ± 0.9 µM |
| CC(C)c1cc2c(c(O)c1O)[C@@]13CCCC(C)(C)[C@@H]1C[C@@H]2OC3=O [Compound 4, carnosol] |  |  |  |  |  | < 50 µM |  |  |  |
